From patent US20240294508A1, “RIP1 MODULATORS INCLUDING AZETIDINE CYCLIC UREAS, PREPARATIONS, AND USES THEREOF” (SIRONAX LTD., priority 2021, published 2024)

Tested on: HT-29 cells
Assay: HT29 cells 0FBS assay in vitro: TNF-α/SMAC mimetic/zVAD-FMK induced necroptosis, CellTiter-Glo cell viability (RIP1 inhibitory activity)
Assay type: cell-based
Details: Homo sapiens, FBS free medium, TNF-α (10 ng/ml) + SMAC mimetic (6 uM) + zVAD-FMK (10 μM), 20 hours, geometric mean EC50
Procedure, shortened: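 HT-29 cells (5,000/well, overnight) switched to FBS-free McCOY's 5A with TNF-α (10 ng/ml), SMAC mimetic (6 uM) and zVAD-FMK (10 μM) to drive necroptosis, plus compound, for 20 hours at 37° C. Viability read by CellTiter-Glo luminescence; geometric mean EC50 from 10-point duplicate dose-response.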

Compound: COc1nccc(C)c1-c1cc(OC2CN(C(=O)N3N=CC[C@H]3c3cc(F)cc(F)c3)C2)c(F)cn1 [Compound 165, (S)-(5-(3,5-difluorophenyl)-4,5-dihydro-1H-pyrazol-1-yl)(3-((5-fluoro-2′-methoxy-4′-methyl-[2,3′-bipyridin]-4-yl)oxy)azetidin-1-yl)methanone]
- EC50: 100 to 1000 nM

Compound: CNC(=O)c1c(C)nn(-c2cc(OC3CN(C(=O)N4N=CC[C@H]4c4cncc(C#N)c4)C3)c(F)cn2)c1C [Compound 81, (S)-1-(4-((1-(5-(5-cyanopyridin-3-yl)-4,5-dihydro-1H-pyrazole-1-carbonyl)azetidin-3-yl)oxy)-5-fluoropyridin-2-yl)-N,3,5-trimethyl-1H-pyrazole-4-carboxamide]
- EC50: 100 to 1000 nM

Compound: Cc1nn(-c2cc(OC3CN(C(=O)N4N=CC[C@@H]4c4cccc(F)c4)C3)c(F)cn2)c(C)c1C(N)=O [Compound 98, (R)-1-(5-fluoro-4-((1-(5-(3-fluorophenyl)-4,5-dihydro-1H-pyrazole-1-carbonyl)azetidin-3-yl)oxy)pyridin-2-yl)-3,5-dimethyl-1H-pyrazole-4-carb oxamide]
- EC50: 1000 to 10000 nM

Compound: Cc1nn(-c2cc(OC3CN(C(=O)N4N=CC[C@H]4c4cc(F)cc(Cl)c4)C3)c(F)cn2)c(C)c1C(=O)O [Compound 140, (S)-1-(4-((1-(5-(3-chloro-5-fluorophenyl)-4,5-dihydro-1H-pyrazole-1-carbonyl)azetidin-3-yl)oxy)-5-fluoropyridin-2-yl)-3,5-dimethyl-1H-pyrazole-4-carboxylic acid]
- EC50: 0.1 to 100 nM

Compound: Cc1nn(-c2cc(OC3CN(C(=O)N4N=CCC4c4cc(F)cc(Cl)c4)C3)c(F)cn2)c(C)c1C(N)=O (centres unmarked) [Compound 117, 1-(4-((1-(5-(3-chloro-5-fluorophenyl)-4,5-dihydro-1H-pyrazole-1-carbonyl)azetidin-3-yl)oxy)-5-fluoropyridin-2-yl)-3,5-dimethyl-1H-pyrazole-4-carboxamide]
- EC50: 0.1 to 100 nM

Compound: Cc1nn(-c2cc(OC3CN(C(=O)N4N=CC[C@H]4c4ccccc4)C3)c(F)cn2)c(C)c1C(N)=O [Compound 71, (S)-1-(5-fluoro-4-((1-(5-phenyl-4,5-dihydro-1H-pyrazole-1-carbonyl)azetidin-3-yl)oxy)pyridin-2-yl)-3,5-dimethyl-1H-pyrazole-4-carboxamide]
- EC50: 0.1 to 100 nM

Compound: CCn1nc(C)c(-c2cc(OC3CN(C(=O)N4N=CC[C@H]4c4cc(F)cc(C#N)c4)C3)c(F)cn2)c1C [Compound 52, (S)-3-(1-(3-((2-(1-ethyl-3,5-dimethyl-1H-pyrazol-4-yl)-5-fluoropyridin-4-yl)oxy)azetidine-1-carbonyl)-4,5-dihydro-1H-pyrazol-5-yl)-5-fluorobenzonitrile]
- EC50: 0.1 to 100 nM

Compound: Cn1ncc(F)c1-c1cc(OC2CN(C(=O)N3N=CC[C@H]3c3cncc(C#N)c3)C2)c(F)cn1 [Compound 46, (S)-5-(1-(3-((5-fluoro-2-(4-fluoro-1-methyl-1H-pyrazol-5-yl)pyridin-4-yl)oxy)azetidine-1-carbonyl)-4,5-dihydro-1H-pyrazol-5-yl)nicotinonitrile]
- EC50: 0.1 to 100 nM

Compound: Cc1nn(-c2cc(OC3CN(C(=O)N4N=CC[C@@H]4c4cc(F)cc(F)c4F)C3)c(F)cn2)c(C)c1S(N)(=O)=O [Compound 125, (R)-1-(5-fluoro-4-((1-(5-(2,3,5-trifluorophenyl)-4,5-dihydro-1H-pyrazole-1-carbonyl)azetidin-3-yl)oxy)pyridin-2-yl)-3,5-dimethyl-1H-pyrazole-4-sulfonamide]
- EC50: 100 to 1000 nM

Compound: Cc1ccc(C)n1-c1cc(OC2CN(C(=O)N3N=CC[C@H]3c3cc(F)cc(C#N)c3)C2)c(F)cn1 [Compound 39, (S)-3-(1-(3-((2-(2,5-dimethyl-1H-pyrrol-1-yl)-5-fluoropyridin-4-yl)oxy)azetidine-1-carbonyl)-4,5-dihydro-1H-pyrazol-5-yl)-5-fluorobenzonitrile]
- EC50: 0.1 to 100 nM

Compound: Cc1nn(C)c(C)c1-c1cc(OC2CN(C(=O)N3N=CC[C@H]3c3cc(F)cc(C#N)c3)C2)c(F)cn1 [Compound 47, (S)-3-fluoro-5-(1-(3-((5-fluoro-2-(1,3,5-trimethyl-1H-pyrazol-4-yl)pyridin-4-yl)oxy)azetidine-1-carbonyl)-4,5-dihydro-1H-pyrazol-5-yl)benzonitrile]
- EC50: 0.1 to 100 nM

Compound: CCNC(=O)c1c(C)nn(-c2cc(OC3CN(C(=O)N4N=CC[C@H]4c4cc(F)cc(C#N)c4)C3)c(F)cn2)c1C [Compound 87, (S)-1-(4-((1-(5-(3-cyano-5-fluorophenyl)-4,5-dihydro-1H-pyrazole-1-carbonyl)azetidin-3-yl)oxy)-5-fluoropyridin-2-yl)-N-ethyl-3,5-dimethyl-1H-pyrazole-4-carboxamide]
- EC50: 0.1 to 100 nM

Compound: Cc1c(-c2cc(OC3CN(C(=O)N4N=CCC4c4cc(F)cc(F)c4F)C3)c(F)cn2)nn(C)c1C(N)=O (centres unmarked) [Compound 110, 3-(5-fluoro-4-((1-(5-(2,3,5-trifluorophenyl)-4,5-dihydro-1H-pyrazole-1-carbonyl)azetidin-3-yl)oxy)pyridin-2-yl)-1,4-dimethyl-1H-pyrazole-5-carboxamide]
- EC50: 0.1 to 100 nM

Compound: Cn1ccnc1-c1cc(OC2CN(C(=O)N3N=CC[C@H]3c3cncc(C#N)c3)C2)c(F)cn1 [Compound 38, (S)-5-(1-(3-((5-fluoro-2-(1-methyl-1H-imidazol-2-yl)pyridin-4-yl)oxy)azetidine-1-carbonyl)-4,5-dihydro-1H-pyrazol-5-yl)nicotinonitrile]
- EC50: 100 to 1000 nM

Compound: Cc1ncn(C)c1-c1cc(OC2CN(C(=O)N3N=CC[C@H]3c3cc(F)cc(C#N)c3)C2)c(F)cn1 [Compound 22, (S)-3-(1-(3-((2-(1,4-dimethyl-1H-imidazol-5-yl)-5-fluoropyridin-4-yl)oxy)azetidine-1-carbonyl)-4,5-dihydro-1H-pyrazol-5-yl)-5-fluorobenzonitrile]
- EC50: 0.1 to 100 nM

Compound: Cc1nc(C(N)=O)c(C)n1-c1cc(OC2CN(C(=O)N3N=CC[C@H]3c3cncc(F)c3)C2)c(F)cn1 [Compound 69, (S)-1-(5-fluoro-4-((1-(5-(5-fluoropyridin-3-yl)-4,5-dihydro-1H-pyrazole-1-carbonyl)azetidin-3-yl)oxy)pyridin-2-yl)-2,5-dimethyl-1H-imidazole-4-carboxamide]
- EC50: 100 to 1000 nM

Compound: Cc1cnn(C)c1-c1cc(OC2CN(C(=O)N3N=CCC3c3cc(F)cc(F)c3F)C2)c(F)cn1 (centres unmarked) [Compound 116, (3-((2-(1,4-dimethyl-1H-pyrazol-5-yl)-5-fluoropyridin-4-yl)oxy)azetidin-1-yl)(5-(2,3,5-trifluorophenyl)-4,5-dihydro-1H-pyrazol-1-yl)methanone]
- EC50: 0.1 to 100 nM

Compound: Cc1nc(C2CC=NN2C(=O)N2CC(Oc3cc(-c4c(C)cnn4C)ncc3F)C2)co1 (centres unmarked) [Compound 90, (3-((2-(1,4-dimethyl-1H-pyrazol-5-yl)-5-fluoropyridin-4-yl)oxy)azetidin-1-yl)(5-(2-methyloxazol-4-yl)-4,5-dihydro-1H-pyrazol-1-yl)methanone]
- EC50: 0.1 to 100 nM

Compound: Cc1c(C#N)nn(C)c1-c1cc(OC2CN(C(=O)N3N=CC[C@H]3c3cncc(F)c3)C2)c(F)cn1 [Compound 65, (S)-5-(5-fluoro-4-((1-(5-(5-fluoropyridin-3-yl)-4,5-dihydro-1H-pyrazole-1-carbonyl)azetidin-3-yl)oxy)pyridin-2-yl)-1,4-dimethyl-1H-pyrazole-3-carbonitrile]
- EC50: 0.1 to 100 nM

Compound: Cc1nn(-c2cc(OC3CN(C(=O)N4N=CC[C@H]4c4cc(F)cc(F)c4F)C3)c(F)cn2)c(C)c1S(N)(=O)=O [Compound 124, (S)-1-(5-fluoro-4-((1-(5-(2,3,5-trifluorophenyl)-4,5-dihydro-1H-pyrazole-1-carbonyl)azetidin-3-yl)oxy)pyridin-2-yl)-3,5-dimethyl-1H-pyrazole-4-sulfonamide]
- EC50: 0.1 to 100 nM

Compound: Cn1ncc(F)c1-c1cc(OC2CN(C(=O)N3N=CC[C@H]3c3cc(F)cc(C#N)c3)C2)c(F)cn1 [Compound 5, (S)-3-fluoro-5-(1-(3-((5-fluoro-2-(4-fluoro-1-methyl-1H-pyrazol-5-yl)pyridin-4-yl)oxy)azetidine-1-carbonyl)-4,5-dihydro-1H-pyrazol-5-yl)benzonitrile]
- EC50: 0.1 to 100 nM

Compound: Cc1ncc(C2CC=NN2C(=O)N2CC(Oc3cc(-c4c(C)cnn4C)ncc3F)C2)s1 (centres unmarked) [Compound 88, (3-((2-(1,4-dimethyl-1H-pyrazol-5-yl)-5-fluoropyridin-4-yl)oxy)azetidin-1-yl)(5-(2-methylthiazol-5-yl)-4,5-dihydro-1H-pyrazol-1-yl)methanone]
- EC50: 0.1 to 100 nM

Compound: CNC(=O)c1c(C)nn(-c2cc(OC3CN(C(=O)N4N=CC[C@H]4c4cccc(F)c4)C3)c(F)cn2)c1C [Compound 79, (S)-1-(5-fluoro-4-((1-(5-(3-fluorophenyl)-4,5-dihydro-1H-pyrazole-1-carbonyl)azetidin-3-yl)oxy)pyridin-2-yl)-N,3,5-trimethyl-1H-pyrazole-4-carboxamide]
- EC50: 0.1 to 100 nM

Compound: Cc1nn(CC2CC2)c(C)c1-c1cc(OC2CN(C(=O)N3N=CC[C@H]3c3cc(F)cc(C#N)c3)C2)c(F)cn1 [Compound 57, (S)-3-(1-(3-((2-(1-(cyclopropylmethyl)-3,5-dimethyl-1H-pyrazol-4-yl)-5-fluoropyridin-4-yl)oxy)azetidine-1-carbonyl)-4,5-dihydro-1H-pyrazol-5-yl)-5-fluorobenzonitrile]
- EC50: 0.1 to 100 nM

Compound: Cc1ncc(C2CC=NN2C(=O)N2CC(Oc3nc(-c4c(C)cnn4C)c(F)cc3F)C2)s1 (centres unmarked) [Compound 123, (3-((6-(1,4-dimethyl-1H-pyrazol-5-yl)-3,5-difluoropyridin-2-yl)oxy)azetidin-1-yl)(5-(2-methylthiazol-5-yl)-4,5-dihydro-1H-pyrazol-1-yl)methanone]
- EC50: 0.1 to 100 nM

Compound: Cc1cnn(C)c1-c1cc(OC2CN(C(=O)C3=NNCC3c3cc(F)cc(F)c3)C2)c(F)cn1 (centres unmarked) [Compound 161, (4-(3,5-difluorophenyl)-4,5-dihydro-1H-pyrazol-3-yl)(3-((2-(1,4-dimethyl-1H-pyrazol-5-yl)-5-fluoropyridin-4-yl)oxy)azetidin-1-yl)methanone]
- EC50: 0.1 to 100 nM
